Measurements taken from the OPERA property sets (Mansouri et al. 2018).
Where a SMILES comes first, the peptide text is derived from it.

| Structure (SMILES) | logP |
| --- | --- |
| COc1ccc(C2=NC(C(=O)O)CS2)c(O)c1OC (stereo not drawn) | 1.1 |
| O=C(O)C(c1ccc(-c2ccccc2)cc1)C(O)c1ccccc1 (stereo not drawn) | 3.6 |
| CCC(C)C(NC(=O)C(C)N)C(=O)O (stereo not drawn) | -2.6 |
| C#CCN(N=O)C(=O)NCCCCC(NC(C)=O)C(=O)NCc1ccccc1 (stereo not drawn) | 1.64 |
| OCCCCNc1[nH]cnc2ncnc1-2 | 0.32 |
| CC1(C(Cl)Cl)C2CC(Cl)(Cl)C1(C(Cl)Cl)CC2(Cl)Cl (stereo not drawn) | 5.9 |
| CCOc1cccc2nc(N)nc(N)c12 | 1.69 |
| CC(C)(C)[N+]([O-])=Cc1cc[n+]([O-])cc1 | -1.05 |
| CCCc1nc(NC(C)C)nc(N2CCOCC2)n1 | 2.26 |
| CCCCC(C)N=C=S (stereo not drawn) | 3.94 |
| COc1ccc(SC)cc1CNC1CCCNC1c1ccccc1 (stereo not drawn) | 3.7 |
| CC(=O)NC(CCCCN(Cc1ccccc1)C(=O)N(CCCl)N=O)C(=O)NCc1ccccc1 (stereo not drawn) | 2.46 |
| CCCc1nc(NCN2CCCC2=O)nc(N2CCOCC2)n1 | 1.62 |
| CNc1ccncc1S(=O)(=O)NC(=NC#N)NC(C)C | -0.65 |
| Cc1c2oc(=O)ccc2c(C)c2c(C)coc12 | 3.35 |
| Cn1c(N)nc2c3cccnc3ccc21 | 1.47 |
| Cc1nc2ccccc2c(=O)n1CC(=O)O | 0.38 |
| CN1C(C(=O)Nc2ccccn2)=C(O)c2sc(Cl)cc2S1(=O)=O | 2.62 |
| COC(=O)C(C)NP(=O)(OCC1C=CC(n2cc(C)c(=O)[nH]c2=O)O1)Oc1ccc([N+](=O)[O-])cc1 (stereo not drawn) | 0.9 |
| CCCCNC1CC(OC2CC(O)(C(=O)CO)Cc3c(O)c4c(c(O)c32)C(=O)c2c(OC)cccc2C4=O)OC(C)C1O (stereo not drawn) | 2.12 |
| CNC(=S)OCCn1c([N+](=O)[O-])cnc1C | 1.12 |
| Nc1ccno1 | -0.47 |
| Nc1ccc(CNC(=O)C2CCCN2C(=O)C(N)C(C2CCCCC2)C2CCCCC2)cn1 (stereo not drawn) | 4.61 |
| OC(CNC1CCCCC1)CON=C(C1CC1)C1CC1 (stereo not drawn) | 2.64 |

| Structure (SMILES) | logP |
| --- | --- |
| CCCCCCNC(=O)N1C(=O)N(C)CC1O (stereo not drawn) | 2.39 |
| CC(C)CC(N)C(=O)NC(CC(C)C)C(=O)NC(C(=O)NC(Cc1ccccc1)C(=O)O)C(C)C (stereo not drawn) (H-LLVF-OH; configuration not given here) | -0.25 |
| COc1ccc(CCNCC(O)COc2ccc(-c3nc(C(C)=O)c[nH]3)cc2)cc1OC (stereo not drawn) | 2.7 |
| COC1C(OC(C)=O)CC(=O)OC(C)CC=CC=CC(=O)C(C)CC(CC=O)C1OC1OC(C)C(OC2CC(CO)C(OC(=O)CC(C)C)C(C)O2)C(N(C)C)C1O (stereo not drawn) | 3.52 |
| CC(C)CC(NC(=O)C(C)N)C(=O)NC(CC(C)C)C(=O)NCC(=O)NC(Cc1ccccc1)C(=O)O (stereo not drawn) (H-ALLGF-OH; configuration not given here) | -0.63 |
| COC(=O)C(C)=CC1C(C(=O)OCc2cccc(OCc3ccccc3)c2)C1(C)C (stereo not drawn) | 6.06 |
| CCC(=O)Nc1ccc(OCC(O)CNC(C)C)cc1 (stereo not drawn) | 1.02 |
| O=c1cc(CI)occ1O | 0.67 |
| NC(=O)C(CCCN1CC2CCC(CC2)C1)(c1ccccc1)c1ccccn1 (stereo not drawn) | 2.88 |
| CCCCNC(=O)N1C(=O)N(C)CC1O (stereo not drawn) | 1.38 |
| Cc1sc2c(C)cc3c(C)cc(=O)oc3c2c1C | 4.09 |
| Nc1ccc2nc3ccccn3c2n1 | 1.38 |
| O=C(NP(=O)(N1CC1)N1CC1)c1ccccc1 | 0.81 |
| C#CCN(N=O)C(=O)NCCCC(NC(C)=O)C(=O)NCc1ccccc1 (stereo not drawn) | 1.12 |
| C=C(Br)CON=C(C)c1cccc(Oc2nc(OC)cc(OC)n2)c1C(=O)OC | 3.73 |
| CC(C)NC(=NC#N)NS(=O)(=O)c1cnccc1Nc1ccc(Cl)c(C(F)(F)F)c1 | 3.27 |
| CC1CC(N)CN1c1nc2c(cc1F)c(=O)c(C(=O)O)cn2-c1ccc(F)cc1F (stereo not drawn) | -0.2 |
| CCON=C(CC)C1=C(O)CC(c2cccc(Oc3ncc(C(F)(F)F)cc3F)c2)CC1=O (stereo not drawn) | 4.63 |
| COc1ccc(C(C)=O)c(O)c1 | 1.98 |
| CN(C)c1cc[n+]([O-])cc1 | -0.9 |
| COc1ccc2c(C)cc(=O)oc2c1 | 1.89 |
| CC(=O)OC(C)(C)C1CCC2(C)CCCC(CO)C2C1 (stereo not drawn) | 3.49 |
| CCCCCOC1CCC(NC(=O)NC23CC4CC(CC(C4)C2)C3)CC1 (stereo not drawn) | 5 |
| Cc1oc2cc3oc(=O)cc(C)c3cc2c1C | 3.22 |

| Structure (SMILES) | logP |
| --- | --- |
| CCCCCCNc1ncnc2c1ncn2C1OC(CO)C(O)C1O (stereo not drawn) | 2.24 |
| Cc1csc(Cl)c1NC1=NCCN1 | 1.18 |
| OCCCCCCCCCNc1[nH]cnc2ncnc1-2 | 2.75 |
| O=C(NCC(F)(F)F)NS(=O)(=O)c1cnccc1NC1CCCCCC1 | 3.85 |
| C/C(=C\CNc1ncnc2[nH]cnc12)CO | 0.6 |
| CCNC(=O)Cn1cccc(O)c1=O | -0.74 |
| CCCc1nc(N(C)C)nc(N2CCOCC2)n1 | 1.64 |
| OC(CNC1CCCC1)CON=C(C1CC1)C1CC1 (stereo not drawn) | 2.46 |
| COC(=O)c1c(Oc2nc(OC)cc(OC)n2)cccc1C(C)=NOCc1ccccc1 | 4.01 |
| NC(Cc1ccccc1)C(=O)NC(Cc1ccccc1)C(=O)NC(Cc1ccccc1)C(=O)NC(Cc1ccccc1)C(=O)O (stereo not drawn) (H-FFFF-OH; configuration not given here) | 1.63 |
| COc1ccc2cc(C(C)C(=O)OCOC(C)=O)ccc2c1 (stereo not drawn) | 3.4 |
| COc1ccc(C2Cc3c(OC)cccc3N(CCN(C)C)C(=O)C2OC(C)=O)cc1 (stereo not drawn) | 3.9 |
| CCCCCCCCCCCCNCCO | 4.51 |
| Cc1cccc(C)c1OCCN(C)C | 2.74 |
| COC(=O)C(C)NP(=O)(OCC1C=CC(n2cc(C)c(=O)[nH]c2=O)O1)Oc1ccc(C(C)=O)cc1 (stereo not drawn) | 0.9 |
| CCCCC(=O)NCCCCCN(O)C(=O)CCC(=O)NCCCCCN(O)C(=O)CCC(=O)NCCCCCN(O)C(C)=O | 0.88 |
| O=C(NC1CCCCC1)NS(=O)(=O)c1cnccc1NC1CCCCC1 | 4.23 |
| NC(=O)c1cccc(Cn2cnc3ccccc32)c1 | 1.7 |
| CC1CCC(NC(=O)N2C(=O)N(C)CC2O)CC1 (stereo not drawn) | 2.41 |
| CN(c1ccc2cc3ccc4c(c3nc2c1)COCN4)S(C)(=O)=O | 1.54 |
| CC(C)CC(N)C(=O)NC(C(=O)O)C(C)C (stereo not drawn) (H-Leu-Val-OH; configuration not given here) | -2.05 |
| CC(C)CC(N)C(=O)NC(C(=O)NC(C(=O)O)C(C)C)C(C)C (stereo not drawn) (H-Leu-Val-Val-OH; configuration not given here) | -2.1 |
| CC(C)CC(N)C(=O)NC(CC(C)C)C(=O)NCC(=O)NC(Cc1ccccc1)C(=O)O (stereo not drawn) (H-LLGF-OH; configuration not given here) | -0.42 |
| C[N+](C)([O-])CCc1ccccc1 | -0.28 |

| Structure (SMILES) | logP |
| --- | --- |
| CCOc1cc2ncnc(Nc3cccc(I)c3)c2cc1OCC | 4.62 |
| Nc1nc(N)nc(O)n1 | -0.19 |
| CCNCc1ccc(C)cc1 | 2.38 |
| COc1ccc(CCNCC(O)COc2ccc(-c3nc(C)c(Cl)[nH]3)cc2)cc1OC (stereo not drawn) | 3.9 |
| COc1ccc(N2CC(N3CCCCC3)=NC2=O)cc1 | 1.5 |
| CCOCCOCCOCCCCCNC(=O)NC12CC3CC(CC(C3)C1)C2 | 3.6 |
| Clc1cc(Cl)c2c(oc3c(Cl)ccc(Cl)c32)c1Cl | 6.34 |
| COC(=O)c1[nH]cc(-c2ccccc2C)c1N1CCOCC1 | 2.8 |
| CCC(C)C(NC(=O)C(CC(C)C)NC(=O)C(NC(=O)C(N)CCSC)C(C)CC)C(=O)O (stereo not drawn) (H-MILI-OH; configuration not given here) | -0.49 |
| O=C(NS(=O)(=O)c1cnccc1NC1CCCCCC1)N1CCCCC1 | 4.14 |
| O=C1CCCc2nnc(-c3ccccc3)cc21 | 2.05 |
| COCCNC(=O)Cn1cnc([N+](=O)[O-])n1 | -0.85 |
| CC(C)(O)C1CCC2(C)CCC3(CO3)C2C1 (stereo not drawn) | 2.9 |
| COc1ccc(NC(=O)OCCN2CCCCC2)cc1 | 2.95 |
| CC(C)CC(N)C(=O)N1CCCC1C(=O)O (stereo not drawn) (H-Leu-Pro-OH; configuration not given here) | -1.76 |
| COc1ccc(C2Cc3cc(C(F)(F)F)ccc3N(CCN(C)C)C(=O)C2SC(C)=O)cc1 (stereo not drawn) | 5.4 |
| COCC(O)CN(C(C)=O)c1c(I)c(C(=O)NCC(O)CO)c(I)c(C(=O)NCC(O)CO)c1I (stereo not drawn) | -2.42 |
| Nc1nc(F)nc2c1ncn2[C@@H]1O[C@H](CO)[C@@H](O)[C@H]1O | -0.8 |
| COc1cc2ncnc(Nc3ccccc3F)c2cc1OC | 2.2 |
| COc1ccc(C2Cc3ccccc3N(CCN(C)C)C(=O)C2C)cc1 (stereo not drawn) | 4.5 |
| CCCNC(=O)c1[nH]cc(-c2ccc(Cl)cc2)c1N1CCOCC1 | 4.2 |
| O=C(O)CCCCON=C(c1cccc(C(F)(F)F)c1)c1ccncn1 | 3.14 |
| Cc1nc([N+](=O)[O-])c(Cl)[nH]1 | 1.06 |
| O=[N+]([O-])c1nccn1CC(O)COCF (stereo not drawn) | -0.4 |

| Structure (SMILES) | logP |
| --- | --- |
| Cc1cc(=O)oc2c(C)c3occc3cc12 | 2.82 |
| CCOP(=O)(OCC)C(Cl)(Cl)P(=O)(OCC)OCC | 1.31 |
| CCC(C)C(NC(=O)C(N)CC(C)C)C(=O)NC(C(=O)NCC(=O)NC(C)C(=O)O)C(C)CC (stereo not drawn) (H-LIIGA-OH; configuration not given here) | -1.65 |
| COCOc1ccc(Cc2cccc(-c3c(O)c4ccc(Cl)cc4[nH]c3=O)c2)cc1 | 5.24 |
| CCOc1ccc(CNc2[nH]cnc3ncnc2-3)cc1 | 2.6 |
| OCC1OC(n2cnc3c(NCCc4ccccc4)ncnc32)C(O)C1O (stereo not drawn) | 1.55 |
| CC1(C(Cl)Cl)C2C(Cl)C(Cl)C1(C(Cl)Cl)C(Cl)C2Cl (stereo not drawn) | 5.52 |
| CC(C)C(N)C(=O)NCC(=O)NC(Cc1ccccc1)C(=O)NC(Cc1ccccc1)C(=O)O (stereo not drawn) (H-VGFF-OH; configuration not given here) | -0.51 |
| Cc1nc2c3c(c(C(=O)N4CC(O)C4)cn2c1C)CCC(c1ccccc1)O3 (stereo not drawn) | 3.1 |
| CC(C)NC(=NC#N)NS(=O)(=O)c1cnccc1NC1CC1 | 0.01 |
| O=C1c2ccc(C(F)(F)F)cc2OCN1CCO[N+](=O)[O-] | 3.01 |
| CCOC(=O)c1c[nH]c2ccccc12 | 3.04 |
| CCC(=O)Nc1ccc2cc3ccc(N)c(CO)c3nc2c1 | 1.55 |
| Cc1c(C)c2ccc3occc3c2oc1=O | 2.9 |
| Oc1cc(O)c2c(c1)OC(c1ccc(O)c(O)c1)C(OCCCc1ccccc1)C2 (stereo not drawn) | 3.78 |
| CCOC(=O)C1=C(C)NC(C)=C(C(=O)OC)C1c1cc(OC)cc(OC)c1 (stereo not drawn) | 4.08 |
| CC(=O)OC1C(C)OC(n2cc(F)c(=O)[nH]c2=O)C1OC(C)=O (stereo not drawn) | -0.02 |
| CC(=O)N(c1nc(=O)n(C(C)C)c(=O)n1C)C(C)C | 0.18 |
| CCCCNC(C)CO (stereo not drawn) | 1.19 |
| CC(=O)c1ccc(Br)cc1O | 3.15 |
| O=S(NC(=S)N1CCCCC1)c1cnccc1NC1CCCCC1 (stereo not drawn) | 3.75 |
| C=CCC1C(=O)N(CCN(C)C)c2ccccc2CC1c1ccc(OC)cc1 (stereo not drawn) | 5.3 |
